Experimental data taken from US20070128217A1 (priority 2003, published 2007).

Key:
[1] = system: recombinant human anti-SARS-CoV antibody 03-018; format: binding; parameters: Binding of antibody 03-018 to linear peptides of the N protein of SARS-CoV Urbani / Binding of antibody 03-018 to looped/cyclic peptides of the N protein of SARS-CoV Urbani: unit not given here
[2] = system: control sera (pooled serum of ten healthy LUMC hospital workers; commercial negative donor pooled serum from the Dutch bloodbank); format: binding, human; parameters: Binding of Control serum LUMC to linear peptides / Binding of Control serum Blood-bank to linear peptides / Binding of Control serum LUMC to looped peptides / Binding of Control Serum Blood-Bank to Looped peptides / Binding of Control serum LUMC to linear peptides of the protein M of SARS-CoV Urbani / Binding of Control serum Blood-bank to linear peptides of the protein M of SARS-CoV Urbani / Binding of Control serum LUMC to looped peptides of the protein M of SARS-CoV Urbani / Binding of Control Serum Blood-Bank to Looped peptides of the protein M of SARS-CoV Urbani: unit not given here
[3] = system: rabbit serum obtained by immunizing a rabbit with the SARS-CoV strain Frankfurt 1; format: binding; parameters: Binding of a rabbit serum to linear peptides / Binding of a rabbit serum to looped peptides / Rabbit serum linear peptides / Rabbit serum looped peptides / Binding of a rabbit serum to linear peptides of protein N of SARS-CoV Urbani (Rabbit serum linear peptides) / Binding of a rabbit serum to looped/cyclic peptides of protein N of SARS-CoV Urbani (Rabbit serum looped peptides): unit not given here
[4] = system: antibodies in sera from SARS patients (sera 1a, 1b, 2, 6, 37, 62, London, SARS-yellow, SARS-green); format: binding, human; parameters: Binding of serum 6 to linear peptides of protein X1 of SARS-CoV Urbani / Binding of serum 37 to linear peptides of protein X1 of SARS-CoV Urbani / Binding of serum 6 to looped/cyclic peptide (PEPSCAN-ELISA) / Binding of serum 37 to looped/cyclic peptide (PEPSCAN-ELISA) / Binding of serum 37 to looped/cyclic peptides of protein X1 of SARS-CoV Urbani / Binding of serum 6 to linear peptides of protein X2 / Binding of serum 37 to linear peptides of protein X2 / Binding of serum 37 to looped/cyclic peptides of protein X2 of SARS-CoV Urbani / Binding of serum 6 to linear peptides of protein M of SARS-CoV Urbani / Binding of serum 37 to linear peptides of protein M of SARS-CoV Urbani / Binding of serum 6 to looped/cyclic peptides of protein M of SARS-CoV Urbani / Binding of serum 37 to looped/cyclic peptides of protein M of SARS-CoV Urbani / Binding of serum 6 to linear peptides of protein X3 of SARS-CoV Urbani / Binding of serum 37 to linear peptides of protein X3 of SARS-CoV Urbani / Binding of serum 37 to looped/cyclic peptides of protein X3 of SARS-CoV Urbani / Binding of serum 6 to linear peptides of protein X4 of SARS-CoV Urbani / Binding of serum 37 to linear peptides of protein X4 of SARS-CoV Urbani / Binding of serum 37 to looped/cyclic peptides of protein X4 of SARS-CoV Urbani / Binding of serum 6 to linear peptides of protein X5 of SARS-CoV Urbani / Binding of serum 37 to linear peptides of protein X5 of SARS-CoV Urbani / Binding of serum 37 to looped/cyclic peptides of protein X5 of SARS-CoV Urbani / Binding of serum 6 to linear peptides of protein N of SARS-CoV Urbani / Binding of serum 37 to linear peptides of protein N of SARS-CoV Urbani / Binding of serum 6 to linear peptide (PEPSCAN-ELISA) / Binding of serum 1a to looped/cyclic peptides of protein N of SARS-CoV Urbani / Binding of serum 1b to looped/cyclic peptides of protein N of SARS-CoV Urbani / Binding of serum 2 to looped/cyclic peptides of protein N of SARS-CoV Urbani / Binding of serum 6 to looped/cyclic peptides of protein N of SARS-CoV Urbani / Binding of serum 37 to looped/cyclic peptides of protein N of SARS-CoV Urbani / Binding of serum 62 to looped/cyclic peptides of protein N of SARS-CoV Urbani / Binding of serum London to looped/cyclic peptides of protein N of SARS-CoV Urbani / Binding of serum SARS-green to looped/cyclic peptides of protein N of SARS-CoV Urbani: unit not given here

Row | Sequence | Binding of antibody 03-018 to linear peptides of the N protein of SARS-CoV Urbani [1] | Binding of antibody 03-018 to looped/cyclic peptides of the N protein of SARS-CoV Urbani [1] | Binding of a rabbit serum to linear peptides of protein N of SARS-CoV Urbani (Rabbit serum linear peptides) [3] | Binding of a rabbit serum to looped/cyclic peptides of protein N of SARS-CoV Urbani (Rabbit serum looped peptides) [3] | Binding of serum 1a to linear peptides of protein N of SARS-CoV Urbani [4] | Binding of serum 1a to looped/cyclic peptides of protein N of SARS-CoV Urbani [4] | Binding of serum 1b to linear peptides of protein N of SARS-CoV Urbani [4] | Binding of serum 1b to looped/cyclic peptides of protein N of SARS-CoV Urbani [4] | Binding of serum 2 to linear peptides of protein N of SARS-CoV Urbani [4] | Binding of serum 2 to looped/cyclic peptides of protein N of SARS-CoV Urbani [4] | Binding of serum 6 to linear peptides of protein N of SARS-CoV Urbani [4] | Binding of serum 6 to looped/cyclic peptides of protein N of SARS-CoV Urbani [4] | Binding of serum 37 to linear peptides of protein N of SARS-CoV Urbani [4] | Binding of serum 37 to looped/cyclic peptides of protein N of SARS-CoV Urbani [4] | Binding of serum 62 to linear peptides of protein N of SARS-CoV Urbani [4] | Binding of serum 62 to looped/cyclic peptides of protein N of SARS-CoV Urbani [4] | Binding of serum London to linear peptides of protein N of SARS-CoV Urbani [4] | Binding of serum London to looped/cyclic peptides of protein N of SARS-CoV Urbani [4] | Binding of serum SARS-green to linear peptides of protein N of SARS-CoV Urbani [4] | Binding of serum SARS-green to looped/cyclic peptides of protein N of SARS-CoV Urbani [4] | also measured
1 | FSRQLQNSMSGASAD | 0.1 | 0.2 | 0.4 | 0.1 | 0.2 | 0.2 | 0.1 | 0.1 | 0.1 | 0.2 | 0.2 | 0.1 | 0.7 | 0.4 | 0.6 | 0.2 | 0.6 | 0.2 | 0.6 | 0.0 | Control Serum Blood-Bank Looped peptides [2]: 0.4; Control serum Blood-bank linear peptides [2]: 0.7; Control serum LUMC linear peptides [2]: 0.6; Control serum LUMC looped peptides [2]: 0.2; Binding of serum SARS-yellow to linear peptides of protein N of SARS-CoV Urbani [4]: 0.4; Binding of serum SARS-yellow to looped/cyclic peptides of protein N of SARS-CoV Urbani [4]: 0.0
2 | FTALTQHGKEELRFP | 0.1 | 0.2 | 0.2 | 0.1 | 0.3 | 0.2 | 0.2 | 0.1 | 0.3 | 0.3 | 0.2 | 0.1 | 0.8 | 0.4 | 0.7 | 0.3 | 0.5 | 0.2 | 0.7 | 0.0 | Binding of Control Serum Blood-Bank to Looped peptides [2]: 0.5; Binding of Control serum Blood-bank to linear peptides [2]: 0.7; Binding of Control serum LUMC to linear peptides [2]: 0.7; Binding of Control serum LUMC to looped peptides [2]: 0.3; Binding of serum SARS-yellow to linear peptides of protein N of SARS-CoV Urbani [4]: 0.6; Binding of serum SARS-yellow to looped/cyclic peptides of protein N of SARS-CoV Urbani [4]: 0.1
3 | FYYLGTGPEASLPYG | 0.1 | 0.2 | 0.1 | 0.6 | 0.3 | 0.4 | 0.1 | 0.3 | 0.2 | 0.4 | 0.2 | 0.2 | 0.6 | 0.7 | 0.7 | 0.6 | 0.5 | 0.5 | 0.4 | 0.4 | Binding of Control Serum Blood-Bank to Looped peptides [2]: 0.7; Binding of Control serum Blood-bank to linear peptides [2]: 0.6; Binding of Control serum LUMC to linear peptides [2]: 0.7; Binding of Control serum LUMC to looped peptides [2]: 0.7; Binding of serum SARS-yellow to linear peptides of protein N of SARS-CoV Urbani [4]: 0.7; Binding of serum SARS-yellow to looped/cyclic peptides of protein N of SARS-CoV Urbani [4]: 0.7
